Data as given in article PMC10229121, “An acetylation-mediated chromatin switch governs H3K4 methylation read-write capability” (eLife, 2023).

Test system: histone H3.1 modifications in HEK-293 cells
Assay: Middle-down mass spectrometry of histone H3.1 from HEK-293 cells ± KDAC inhibition (H3K9 methylation, {K9ac, K14ac, K18ac} proteoforms, H3K4 methylation)
Type: cell-based
Conditions: for 3ac including {K9ac, K14ac, K18ac} / 4ac including {K9ac, K14ac, K18ac} / 5ac including {K9ac, K14ac, K18ac}: HEK-293, H3.1 butyrate treated; for H3K9me0 / H3K9me1 / H3K9me2 / H3K9me3: HEK-293, butyrate treated
Protocol: Figure 3. […] (A) Occupancy of H3K4 methyl states (me0-1-2-3) within each H3 acetyl state (0ac to 5ac) in asynchronous MCF-7 cells. (B) Occupancy of H3K4 methyl states within each H3 acetyl state after butyrate treatment (60 min). Asterisks represent p-values <0.05. […] Each spectrum is an average of MS2 spectra of the indicated H3 acetyl states after 60 min of butyrate treatment. K4 occupancy stoichiometry is directly correlated with H3 acetylation state and the targeted MS approach provides excellent signal-to-noise for confident quantitation. […] See Methods for further information on data acquisition and analysis. All data were collected in biological triplicate with error bars representing SEM. Figure 3—figure supplement 1. H3 acetylation states with sodium butyrate treatment. (A - B) Each acetyl state of acid-extracted H3 from 0ac to 5ac is represented as a percent of total H3 before/after 60 min treatment of asynchronous MCF-7 cells with 5 mM sodium butyrate. (C) Occupancy of H3K4 methyl states (me0-1-2-3) within each H3 acetyl state (0ac to 5ac) in asynchronous HEK-293 cells. (D) Occupancy of H3K4 methyl states within each H3 acetyl state after butyrate treatment (120 min) in asynchronous HEK-293 cells. (E) Percentage of (K9ac, K14ac, K18ac) proteoforms within 3ac to 5ac acetyl states of H3.1 ± butyrate treatment in HEK-293 cells. N=3 and error bars are SEM for all data. [drawing 3]
MCF-7 breast cancer cells (ATCC HTB-22) were grown in MEM (Gibco) supplemented with 10% fetal bovine serum (VWR), 100 I.U. penicillin, 100 µg/mL streptomycin (Corning), 0.01 mg/mL human recombinant insulin (Gibco), and 5 µg/mL plasmocin (Invivogen) at 37 °C and 5% CO2. HEK-293 (ATCC CRL-1573) was grown in DMEM (Gibco) supplemented with 10% fetal bovine serum (Corning), 100 I.U. penicillin, and 100 µg/mL streptomycin (Gibco) at 37 °C and 5% CO2. Both cell lines were authenticated via STR profiling and confirmed to be Mycoplasma negative.
For mass spectrometric (MS) analysis ± KDAC inhibition, cells were cultured in 150 mm dishes to ~80% confluence and treated with 5 mM sodium butyrate (or equivalent volume of water) in triplicate for 0, 10, 20, 30, 60, 120 min. […] Histones were acid extracted after nuclei isolation as described ([Holt et al., 2021]). Isolated histones were resuspended in 85 µL 5% acetonitrile, 0.2% trifluoroacetic acid (TFA), and resolved by offline high-performance liquid chromatography (HPLC) as described ([Holt et al., 2021]). […] After chromatographic separation and fraction collection, histone H3.1 was selected, diluted in 100 mM ammonium acetate (pH = 4), and digested with Glu-C protease (Roche) at 10:1 protein:enzyme for 1 hr at room temperature prior to mass spectrometric analysis.
The digested samples were diluted to 2 µg/µL. Online HPLC was performed on a U3000 RSLC nano Pro-flow system using a C3 column (Zorbax 300 SB-C3, 5 µm; Agilent). Samples were maintained at 4 °C and 1 µL injected for each analysis using a microliter pickup. […] The column eluant was introduced into an Orbitrap Fusion Lumos mass spectrometer (Thermo Fisher) by nano-electrospray ionization. A static spray voltage of 1900 V and an ion transfer tube temperature of 320 °C were set for the source.
A Fusion Lumos mass spectrometer was used to generate MS data. The 9th charge state of histone H3 was targeted for analysis. MS1 analysis was acquired in the orbitrap with a normal mass range and a 60 k resolution setting in positive ion mode. An Automatic Gain Control (AGC) target of 5.0E5 with a 200 ms maximum injection time, three microscans, and a scan range of 585–640 m/z was used to identify desired ions for fragmentation. MS2 acquisition was performed in both orbitrap and ion trap modes. Both modes used electron transfer dissociation (ETD), a reaction time of 18ms, and an injection time of 200 ms. […]

In the case of `CCCC(=O)O` [sodium butyrate], the “3ac including {K9ac, K14ac, K18ac}” value is reported as 1.6743 Percentage, the “4ac including {K9ac, K14ac, K18ac}” value is reported as 16.6357 Percentage and the “5ac including {K9ac, K14ac, K18ac}” value is reported as 100 Percentage. For the same molecule, the “3ac including {K9ac, K14ac, K18ac}” value (column 1 of 3) was 1.334 Percentage, the “4ac including {K9ac, K14ac, K18ac}” value (column 1 of 3) was 17.3973 Percentage and the “5ac including {K9ac, K14ac, K18ac}” value (column 1 of 3) was 100 Percentage. For the same molecule, the “3ac including {K9ac, K14ac, K18ac}” value (column 2 of 3) was 1.24 Percentage, the “4ac including {K9ac, K14ac, K18ac}” value (column 2 of 3) was 17.858 Percentage and the “5ac including {K9ac, K14ac, K18ac}” value (column 2 of 3) was 100 Percentage. The H3K9me0 (0ac) was 48.8895 Percentage, the H3K9me1 (0ac) was 7.899 Percentage and the H3K9me2 (0ac) was 29.443 Percentage. For the same molecule, the H3K9me3 (0ac) was 13.7682 Percentage, the H3K9me0 (0ac, column 1 of 3) was 54.4348 Percentage and the H3K9me1 (0ac, column 1 of 3) was 4.2113 Percentage. It also gave an H3K9me2 (0ac, column 1 of 3) of 27.4814 Percentage, an H3K9me3 (0ac, column 1 of 3) of 13.8725 Percentage and an H3K9me0 (0ac, column 2 of 3) of 51.9841 Percentage. It also gave an H3K9me1 (0ac, column 2 of 3) of 5.137 Percentage, an H3K9me2 (0ac, column 2 of 3) of 26.9782 Percentage and an H3K9me3 (0ac, column 2 of 3) of 15.9004 Percentage. For the same molecule, the H3K9me0 (1ac) was 27.5434 Percentage, the H3K9me1 (1ac) was 15.9623 Percentage and the H3K9me2 (1ac) was 38.0917 Percentage. It also gave an H3K9me3 (1ac) of 17.0037 Percentage, an H3K9me0 (1ac, column 1 of 3) of 28.711 Percentage and an H3K9me1 (1ac, column 1 of 3) of 14.4169 Percentage. For the same molecule, the H3K9me2 (1ac, column 1 of 3) was 39.3301 Percentage, the H3K9me3 (1ac, column 1 of 3) was 15.8799 Percentage and the H3K9me0 (1ac, column 2 of 3) was 28.8744 Percentage. For the same molecule, the H3K9me1 (1ac, column 2 of 3) was 14.4284 Percentage, the H3K9me2 (1ac, column 2 of 3) was 38.0038 Percentage and the H3K9me3 (1ac, column 2 of 3) was 16.6818 Percentage. For the same molecule, the H3K9me0 (2ac) was 27.9258 Percentage, the H3K9me1 (2ac) was 21.3235 Percentage and the H3K9me2 (2ac) was 37.139 Percentage. For the same molecule, the H3K9me3 (2ac) was 9.818 Percentage, the H3K9me0 (2ac, column 1 of 3) was 28.9582 Percentage and the H3K9me1 (2ac, column 1 of 3) was 21.0866 Percentage. For the same molecule, the H3K9me2 (2ac, column 1 of 3) was 35.8684 Percentage, the H3K9me3 (2ac, column 1 of 3) was 10.0575 Percentage and the H3K9me0 (2ac, column 2 of 3) was 26.6449 Percentage. It also gave an H3K9me1 (2ac, column 2 of 3) of 22.0491 Percentage, an H3K9me2 (2ac, column 2 of 3) of 35.8906 Percentage and an H3K9me3 (2ac, column 2 of 3) of 10.993 Percentage. For the same molecule, the H3K9me0 (3ac) was 21.6496 Percentage, the H3K9me1 (3ac) was 12.8486 Percentage and the H3K9me2 (3ac) was 25.9132 Percentage. The H3K9me3 (3ac) was 9.297 Percentage, the H3K9me0 (3ac, column 1 of 3) was 21.2886 Percentage and the H3K9me1 (3ac, column 1 of 3) was 12.9304 Percentage. It also gave an H3K9me2 (3ac, column 1 of 3) of 26.508 Percentage, an H3K9me3 (3ac, column 1 of 3) of 10.2618 Percentage and an H3K9me0 (3ac, column 2 of 3) of 21.713 Percentage. For the same molecule, the H3K9me1 (3ac, column 2 of 3) was 11.1466 Percentage, the H3K9me2 (3ac, column 2 of 3) was 27.8034 Percentage and the H3K9me3 (3ac, column 2 of 3) was 10.4504 Percentage. The H3K9me0 (4ac) was 4.833 Percentage, the H3K9me1 (4ac) was 7.36 Percentage and the H3K9me2 (4ac) was 8.881 Percentage. It also gave an H3K9me3 (4ac) of 1.604 Percentage, an H3K9me0 (4ac, column 1 of 3) of 5.043 Percentage and an H3K9me1 (4ac, column 1 of 3) of 6.813 Percentage. It also gave an H3K9me2 (4ac, column 1 of 3) of 10.053 Percentage, an H3K9me3 (4ac, column 1 of 3) of 3.009 Percentage and an H3K9me0 (4ac, column 2 of 3) of 4.13 Percentage. The H3K9me1 (4ac, column 2 of 3) was 7.856 Percentage, the H3K9me2 (4ac, column 2 of 3) was 9.753 Percentage and the H3K9me3 (4ac, column 2 of 3) was 2.246 Percentage. The H3K9me0 (5ac) was 0 Percentage, the H3K9me1 (5ac) was 0 Percentage and the H3K9me2 (5ac) was 0 Percentage. It also gave an H3K9me3 (5ac) of 0 Percentage, an H3K9me0 (5ac, column 1 of 3) of 0 Percentage and an H3K9me1 (5ac, column 1 of 3) of 0 Percentage. For the same molecule, the H3K9me2 (5ac, column 1 of 3) was 0 Percentage, the H3K9me3 (5ac, column 1 of 3) was 0 Percentage and the H3K9me0 (5ac, column 2 of 3) was 0 Percentage. It also gave an H3K9me1 (5ac, column 2 of 3) of 0 Percentage, an H3K9me2 (5ac, column 2 of 3) of 0 Percentage and an H3K9me3 (5ac, column 2 of 3) of 0 Percentage. The “H3K9me3 on hyperacetylated H3 proteoforms, in words” value (HEK-293, ± butyrate) was “H3K9me3 did not accumulate with hyperacetylated H3 proteoforms” and the “{K9ac, K14ac, K18ac} in 5ac proteoforms, in words” value (HEK-293, ± butyrate) was “all penta-acetylated (5ac) H3 proteoforms consisted of acetylation at H3K9, K14, and K18 at minimum”.
